From article PMC10592352 (Cell chemical biology, 2023)

Assays:
[1] = ES1e mice, oral, 40 mg/kg; cited from earlier work
[2] = Concentration reached in aqueous buffer for co-crystallization; type: physicochemical; conditions: aqueous buffer with 10% DMSO
PCNA = PCNA (Homo sapiens, UniProt P12004); assay: Thermal denaturation; type: binding; conditions: dose-dependent, largest shift
[3] = GLP-controlled toxicity study; parameters: species or system dogs; conditions: dog, in vivo
[4] = tested on: Salmonella tester strains TA98 and TA100; assay: Ames test; conditions: TA98 frameshift, TA100 base pair substitution
[5] = tested on: human PBMCs, small airway epithelial cells (hSEAC), neural crest stem cells (7SM0032); assay: Growth of nonmalignant cells; type: cell-based
[6] = GLP-controlled toxicity study; parameters: species or system mice; conditions: mouse, in vivo
[7] = tested on: MDA-MB-468 breast cancer xenograft; assay: Xenograft tumor growth; conditions: MDA-MB-468 xenograft, 40 mg/kg twice daily, oral
[8] = tested on: H82 small-cell lung cancer xenograft; assay: Xenograft tumor growth; conditions: 40 mg/kg twice daily, oral
Oral PK study in mice = type: in vivo, ES1e/SCID mice
[9] = tested on: more than 70 cancer cell lines; assay: Growth inhibition across cancer cell lines; type: cell-based; conditions: read-out: median concentration to achieve 50% growth inhibition (GI50)
[10] = tested on: SK-N-BE(2)c neuroblastoma xenograft; assay: Xenograft tumor growth; conditions: 40 mg/kg twice daily

Chain of PCNA (P12004 whole entry): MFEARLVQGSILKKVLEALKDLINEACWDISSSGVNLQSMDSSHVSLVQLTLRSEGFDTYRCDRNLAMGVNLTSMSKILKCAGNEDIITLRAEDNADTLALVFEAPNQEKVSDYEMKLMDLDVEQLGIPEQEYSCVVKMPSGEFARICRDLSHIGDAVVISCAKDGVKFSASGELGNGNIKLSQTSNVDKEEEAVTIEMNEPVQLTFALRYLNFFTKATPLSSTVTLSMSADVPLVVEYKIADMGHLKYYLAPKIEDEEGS

Question: For `O=C(CNC(=O)c1cccc2ccccc12)Nc1ccccc1Oc1ccccc1` [AOH1160], which half-life [1] is on record?
Answer: Its half-life is 3.4 h.

Question: For `COc1cccc(Oc2ccccc2NC(=O)[C@H](CCC(=O)O)NC(=O)c2cccc3ccccc23)c1` [AOH1996LE], which “concentration in aqueous buffer” value [2] is on record?
Answer: The value was 4000 µM.

Question: Which results are given for `COc1cccc(Oc2ccccc2NC(=O)CNC(=O)c2cccc3ccccc23)c1` [AOH1996]?
Answer: shift of protein melting curves (PCNA): ≤ 1.5 °C; NOAEL at 4 weeks [3]: 75 mg/kg; mutagenicity in Ames test [4]: does not cause frameshift or base pair substitution; concentration not significantly toxic to nonmalignant cells [5]: at least 10 μM; NOAEL at 4 weeks [6]: ≥ 250 mg/kg; tumor burden versus vehicle [7]: significantly reduced the tumor burden; tumor burden versus vehicle [8]: significantly reduced the tumor burden; absorption into the circulatory system (Oral PK study in mice; animals, data not shown): ~90%; increase in area under the curve (AUC) versus AOH1160 (Oral PK study in mice; mice, 40 mg/kg): ~4%; increase in half-life versus AOH1160 (Oral PK study in mice; mice, 40 mg/kg): ~ 27%; increase in peak concentration (Cmax) versus AOH1160 (Oral PK study in mice; mice, 40 mg/kg): ~40%; GI50 [9]: ~300 nM; tumor burden versus vehicle ([10]; SK-N-BE(2)c xenograft, oral): significantly reduced the tumor burden; death and body weight in tumor studies ([10]; xenograft-bearing ES1e/SCID mice): did not cause any death or significant weight loss
